The values that follow come from US20050043341A1, “3-'Hydroxy-(-4-trifluoromethylphenyl)-methyl-7-spirocyclobutyl-5,6,7 8-tetrahydroquinolin-5-ol derivatives and the use of the same as cholesterol ester transfer protein (cetp) inhibitors” (priority 2001, published 2005).

The target of assay [1] is T1, CETP (Homo sapiens, UniProt P11597).
T1 construct: CETP is obtained in partially purified form from human plasma; from tissue; host or cells: human plasma
T1 sequence (P11597 18-493): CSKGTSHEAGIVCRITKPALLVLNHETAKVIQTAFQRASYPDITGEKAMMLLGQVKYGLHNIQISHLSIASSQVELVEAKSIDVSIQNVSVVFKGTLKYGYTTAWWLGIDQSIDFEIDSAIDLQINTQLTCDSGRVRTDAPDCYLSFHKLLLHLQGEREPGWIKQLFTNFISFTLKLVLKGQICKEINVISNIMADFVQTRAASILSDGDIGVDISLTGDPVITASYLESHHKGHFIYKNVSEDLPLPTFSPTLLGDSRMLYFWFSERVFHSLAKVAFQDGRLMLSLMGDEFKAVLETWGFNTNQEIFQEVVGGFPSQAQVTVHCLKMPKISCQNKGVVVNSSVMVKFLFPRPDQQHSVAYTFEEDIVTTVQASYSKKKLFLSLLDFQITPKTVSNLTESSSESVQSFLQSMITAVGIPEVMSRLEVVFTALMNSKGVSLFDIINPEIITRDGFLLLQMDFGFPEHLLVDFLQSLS
Nature of the assay: CETP fluorescence test. The format is biochemical. Conditions: CETP from human plasma, 37° C., 4 hours; read-out: IC50 (nM) Fluor. test. The procedure:
(§1) CETP is obtained in partially purified form from human plasma by differential centrifugation and column chromatography and used for the test. To this end, human plasma is adjusted to a density of 1.21 g per ml using NaBr and centrifuged at 4° C. at 50000 rpm for 18 h. The bottom fraction (d>1.21 g/ml) is applied to a Sephadex® Phenyl-Sepharose 4B (Pharmacia) column, washed with 0.15 M NaCl/0.001 M tris HCl pH 7.4 and then eluted with dist. water. Die CETP-active fractions are pooled, dialysed against 50 mM Na acetate pH 4.5 and applied to a CM-Sepharose® (Pharmacia) column. The mixture is then eluted using a linear gradient (0-1 M NaCl). The pooled CETP fractions are dialysed against 10 mM TrisHCl pH 7.4 and then further purified by chromatography on a Mono Q® column (Pharmacia).
Measurement of the CETP-catalysed transfer of a fluorescent cholesterol ester between liposomes—modified according to the procedure of Bisgaier et al., J. Lipid Res. 34, 1625 (1993).
For the production of the donor liposomes, 1 mg of cholesteryl 4,4-difluoro-5,7-dimethyl-4-bora-3a,4a-diaza-s-indacene-3-dodecanoate (cholesteryl BODIPY® FL C12, Molecular Probes) is dissolved in 600 μl of dioxane with 5.35 mg of triolein and 6.67 mg of phosphatidylcholine with gentle warming in an ultrasonic bath and this solution is added very slowly with ultrasonication to 63 ml of 50 mM tris/HCl, 150 mM NaCl, 2 mM EDTA buffer pH 7.3 at RT.
The suspension is then ultrasonicated under an N2 atmosphere for 30 minutes in the Braukson ultrasonic bath at about 50 watts, the temperature being kept at about 20° C.
The acceptor liposomes are obtained analogously from 86 mg of cholesteryl oleate, 20 mg of triolein and 100 mg of phosphatidylcholine dissolved in 1.2 ml of dioxane and 114 ml of above buffer by ultrasonication at 50 watts (20° C.) for 30 minutes.
For testing, a test mix consisting of 1 part of above buffer, 1 part of donor liposomes and 2 parts of acceptor liposomes is used.
80 μl of test mix are treated with 1-3 μg of enriched CETP fraction, obtained from human plasma by means of hydrophobic chromatography, and 2 μl of the substance to be investigated in DMSO and incubated at 37° C. for 4 hours.
The change in the fluorescence at 485/535 nm is a measure of the CE transfer; the inhibition of the transfer in comparison to the control batch without substance is determined.

In assay [2] the target is T1, CETP. Nature of the assay: CETP-SPA test. Conditions: 3H-cholesterol ester transfer from HDL to biotin-LDL, 37° C., 18 h. The format is biochemical. The procedure:
as §1
50 ml of fresh human EDTA plasma are adjusted to a density of 1.12 using NaBr and centrifuged at 4° C. in a Ty 65 rotor at 50000 rpm for 18 h. The upper phase is used for the obtainment of cold LDL. The lower phase is dialysed against 3×41 of PDB buffer (10 mM tris/HCl pH 7.4, […], 1 mM EDTA, 0.02% NaN3). Per 10 ml of retentate volume, 20 μl of 3H-cholesterol (Dupont NET-725; 1 μC/μl dissolved in ethanol!) is then added and the mixture is incubated at 37° C. under N2 for 72 h.
The batch is then adjusted to the density 1.21 using NaBr and centrifuged at 20° C. in a Ty 65 rotor at 50000 rpm for 18 h. The upper phase is recovered and the lipoprotein fractions are purified by gradient centrifugation. To this end, the isolated, labelled lipoprotein fraction is adjusted to a density of 1.26 using NaBr. 4 ml each of this solution are covered in centrifuged tubes (SW 40 rotor) with a layer of 4 ml of a solution of density 1.21 and 4.5 ml of a solution of 1.063 (density solutions of PDB buffer and NaBr) and then centrifuged for 24 h at 38000 rpm and 20° C. in the SW 40 rotor. The intermediate layer lying between the density 1.063 and 1.21, containing the labelled HDL, is dialysed against 3×100 volumes of PDB buffer at 4° C.
The retentate contains radiolabelled ^3H-CE-HDL, which, adjusted to about 5×10^6 cmp per ml, is used for the test.
For testing of the CETP activity, the transfer of ^3H-cholesterol ester from human HD lipoproteins to biotinylated LD lipoproteins is measured.
The reaction is ended by addition of streptavidin-SPA®beads (Amersham) and the transferred radioactivity is determined directly in a liquid scintillation counter.
In the test batch, 10 μl of HDL-^3H-cholesterol ester (˜50000 cpm) are incubated at 37° C. for 18 h with 10 μl of biotin-LDL (Amersham) in 50 mM Hepes/0.15 M NaCl/0.1% bovine serum albumin/0.05% NaN3 pH 7.4 containing 10 μl of CETP (1 mg/ml) and 3 μl of solution of the substance to be tested (dissolved in 10% DMSO/1% RSA). 200 μl of the SPA-streptavidin bead solution (TRKQ 7005) are then added, incubated further with shaking for 1 h and then measured in a scintillation counter.
Corresponding incubations with 10 μl of buffer, 10 μl of CETP at 4° C. and 10 μl of CETP at 37° C. serve as controls.
The activity transferred in the control batches with CETP at 37° C. is rated as 100% transfer. The substance concentration at which this transfer is reduced to half is specified as the IC50 value.

The target in assay [3] is T2, CETP activity in the serum (Homo sapiens, UniProt P11597).
T2 construct: determination of its basal CETP activity in the serum; from tissue; host or cells: serum of transgenic hCETP mice
T2 sequence (P11597 18-493): T1 sequence (P11597 18-493)
Description: Ex vivo activities on transgenic hCETP mice (serum CETP activity after oral administration). Conditions: mouse, cholesteryl ester transport in serum. The procedure: To test for CETP-inhibitory activity, the substances are administered orally using a stomach tube to transgenic hCETP mice of our own breeding (Dinchuk et al. BBA (1995) 1295-301). To this end, male mice are randomly assigned to groups having an equal number of animals, as a rule n=3, one day before the start of the experiment. Before administration of the substance, blood is taken from each mouse by puncture of the retroorbital venous plexus for the determination of its basal CETP activity in the serum (T1). The test substance is then administered to the animals using the stomach tube. At specific times after administration of the test substance, blood is taken from the animals by puncture a second time (T2), as a rule 1, or 3 and 6 h after substance administration, but if appropriate this can also be carried out at another time.
In order to be able to assess the inhibitory activity of a substance, for each time, i.e. 1 or 3 or 6 h, a corresponding control group is employed whose animals only receive the formulating agent without substance. In the control animals, the second blood sampling per animal is carried out as in the substance-treated animals in order to be able to determine the change in the CETP activity without inhibitor over the corresponding experimental time interval (1, 3 or 6 h).
After termination of the clotting, the blood samples are centrifuged and the serum is removed by pipette.
For the determination of the CETP activity, the cholesteryl ester transport over 4 h is determined. To this end, as a rule 2 μl of serum are employed in the test batch and the test is carried out as described under “CETP fluorescence test”.
The differences in the cholesteryl ester transport (pM CE*/h (T2)−pM CE*/h (T1)) are calculated for each animal and averaged in the groups. A substance which at one of the times reduces the cholesteryl ester transport by >30% is regarded as active.

The mark [4] stands for this setting: 1 h after administration, read-out: % inhibition at 30 mg/kg, 1 h.
Where [5] appears, read: 3 h after administration, read-out: % inhibition at 30 mg/kg, 3 h.
Setting [6] is: 6 h after administration, read-out: % inhibition at 30 mg/kg, 6 h.

Like-named read-outs stand apart in the source and are kept apart here.

As to `O[C@@H](c1ccc(C(F)(F)F)cc1)c1c(C2CCCC2)nc2c(c1-c1ccccc1)[C@@H](O)CC1(CCC1)C2` [Example 55, (5S)-2-Cyclopentyl-4-phenyl-3-[(S)-hydroxy-(4-trifluoromethylphenyl)-methyl]-7-spirocyclobutyl-5,6,7,8-tetrahydroquinolin-5-ol], the IC50 at CETP [1] stood at 65 nM.

As to `CC(C)c1nc2c(c(-c3ccsc3)c1[C@@H](O)c1ccc(C(F)(F)F)cc1)[C@@H](O)CC1(CCC1)C2` [Example 57, (5S)-2-Isopropyl-4-(3-thienyl)-3-[(S)-hydroxy-(4-trifluoromethylphenyl)-methyl]-7-spirocyclobutyl-5,6,7,8-tetrahydroquinolin-5-ol], the IC50 on CETP [1] was determined as 45 nM; against CETP [2], 40 nM.

Take `O[C@@H](c1ccc(C(F)(F)F)cc1)c1c(C2CCCC2)nc2c(c1-c1ccsc1)[C@@H](O)CC1(CCC1)C2` [Example 59, (5S)-2-Cyclopentyl-4-(3-thienyl)-3-[(S)-hydroxy-(4-trifluoromethylphenyl)-methyl]-7-spirocyclobutyl-5,6,7,8-tetrahydroquinolin-5-ol]: the IC50 at CETP [1] was 60 nM; against CETP [2], 35 nM.

Turning to `O[C@@H](c1ccc(C(F)(F)F)cc1)c1c(C2CCCC2)nc2c(c1-c1cccs1)[C@@H](O)CC1(CCC1)C2` [Example 63, (5S)-2-Cyclopentyl-4-(2-thienyl)-3-[(S)-hydroxy-(4-trifluoromethylphenyl)-methyl]-7-spirocyclobutyl-5,6,7,8-tetrahydroquinolin-5-ol], the IC50 at CETP [1] turned out to be 70 nM. The inhibition at 30 mg/kg was found to be 74% in assay [3] (setting [4]), 55% in assay [3] (setting [5]) and 40% in assay [3] (setting [6]).

In the case of `CC(C)c1nc2c(c(C3CCCCC3)c1[C@@H](O)c1ccc(C(F)(F)F)cc1)[C@@H](O)CC1(CCC1)C2` [Example 65, (5S)-2-Isopropyl-4-cyclohexyl-3-[(S)-hydroxy-(4-trifluoromethylphenyl)-methyl]-7-spirocyclobutyl-5,6,7,8-tetrahydroquinolin-5-ol], the IC50 at CETP [1] came out at 80 nM. For the same compound, the figures for the inhibition at 30 mg/kg in assay [3] (setting [4]), in assay [3] (setting [5]) and in assay [3] (setting [6]) were 69%, 46% and 28%, respectively.

With `O[C@@H](c1ccc(C(F)(F)F)cc1)c1c(C2CCCC2)nc2c(c1C1CCCCC1)[C@@H](O)CC1(CCC1)C2` [Example 67, (5S)-2-Cyclopentyl-4-cyclohexyl-3-[(S)-hydroxy-(4-trifluoromethylphenyl)-methyl]-7-spirocyclobutyl-5,6,7,8-tetrahydroquinolin-5-ol], the IC50 at CETP [1] came to 60 nM; against CETP [2] it was 15 nM.

As to `O[C@@H](c1ccc(C(F)(F)F)cc1)c1c(C2CCCC2)nc2c(c1C1CCC1)[C@@H](O)CC1(CCC1)C2` [Example 73, (5S)-2-Cyclopentyl-4-cyclobutyl-3-[(S)-hydroxy-(4-trifluoromethylphenyl)-methyl]-7-spirocyclobutyl-5,6,7,8-tetrahydroquinolin-5-ol], the half-inhibitory concentration (IC50) at CETP [1] was found to be 800 nM.

Regarding `CC(C)c1c([C@@H](O)c2ccc(C(F)(F)F)cc2)c(C2CCCC2)nc2c1[C@@H](O)CC1(CCC1)C2` [Example 75, (5S)-2-Cyclopentyl-4-isopropyl-3-[(S)-hydroxy-(4-trifluoromethylphenyl)-methyl]-7-spirocyclobutyl-5,6,7,8-tetrahydroquinolin-5-ol], the IC50 at CETP [1] turned out to be 70 nM.

`CCCc1c([C@@H](O)c2ccc(C(F)(F)F)cc2)c(C2CCCC2)nc2c1[C@@H](O)CC1(CCC1)C2` [Example 77, (5S)-2-Cyclopentyl-4-(1-propyl)-3-[(S)-hydroxy-(4-trifluoromethylphenyl)-methyl]-7-spirocyclobutyl-5,6,7,8-tetrahydroquinolin-5-ol]: the IC50 on CETP [1] came to 2000 nM.
